Reference: patent US20250333440A1, “Azole Tripeptides as Vasodilators” (University of Kansas, priority 2024, published 2025)

Tests used:
[1] = test system: chicken embryos; type: in vivo, Brown Leghorn chicken embryos; parameters: embryo survival: unit of the concentration uncertain; conditions: for embryo survival: 40 (unit uncertain) dose; for embryo survival / embryos that survived: 24 h; for embryos that survived: 40 μM dose
Method: (§1) At day 2, the egg was carefully cleaned with isopropanol again and a small opening was carved near its air sac through which approximately 3 mL of albumin was removed. The opening was sealed with medical tape and a larger square opening of approximately 1×1 cm was carved near the center of the egg using a Dremer Stylo+ tool. The egg was further cleaned in order to remove debris and the eggshell membrane was carefully removed using sterilized tweezers. The opening was sealed using clear tape and the eggs were incubated for four more days under the same conditions after disabling the auto-turning mechanism of the incubator.
(§2) The tape covering the opening in the egg was carefully removed and the disc was carefully placed on top of the chorioallantoic membrane (e.g., CAM) using sterilized tweezers, then the opening was resealed, and the eggs were placed again in the incubator.
The protocol included DMSO as a negative control and Razuprotafib as a positive control. The protocol also included the heptapeptide NLLMAAS as a negative control, which is an orthosteric antagonist of ANG-1.

[2] = test system: chicken embryos exposed to CoCl2; assay: rescue of embryos administered a 100-fold lethal dose of hypoxia-inducing CoCl2; type: in vivo; conditions: CoCl2 1 M; 2.4 g/kg on Day 6
[3] = test system: blood vessels in the CAM; assay: chick chorioallantoic membrane assay (CAM), vasculature analysed with NIH ImageJ; type: in vivo, Brown Leghorn chicken embryos; conditions: for effect on branching compared to DMSO control / effect on vascular density (VD) compared to DMSO control / effect on vessel diameter compared to DMSO control / effect on vessel length density (VLD) compared to DMSO control: 24 h after administration
Method: as §1, §2
(§3) The paper disc was carefully removed, and the CAM was photographed. For the Miles assay approximately 100 μl of a 1% w/v solution of Evans Blue dye was injected in the CAM and infiltration of the dye into the blood vessels was analyzed using an Andonstar digital microscope equipped with a 60× magnification lens. If the dye infiltrated the blood vessels the test was considered positive. The photographs were later cropped to include only the CAM and analyzed using the NIH ImageJ software package as follows.
To analyze the extent of branching the blood vessels were carefully traced in order for the ImageJ software to be able to distinguish them for the background. The traced images were opened on the ImageJ software, converted into an 8 bit image and the threshold was adjusted to exclude any possible background signal. This process gave a binary (black and white) map of the vasculature which was then skeletonized (converted into a 1 pixel wide map) and the skeleton was analyzed to determine the number of branches and junction voxels (pixels connected to more than 2 other pixels, i.e. pixels in which the map divides).
To analyze the vascular length density and vascular density the cropped image was opened on the ImageJ software, and the Mexican Hat filter plugin was applied using a radius of 5.0. After this, the image was made binary and the Vascular Density function of the Vessel Analysis plugin was used to determine both parameters after carefully tracing the image so that only the CAM area was included on the calculation.
To analyze the vessel the cropped image was opened on the ImageJ software, and the Mexican Hat filter plugin was applied using a radius of 5.0.

[4] = test system: blood vessels in the CAM; assay: Miles assay (Evans Blue) / vascular permeability in the CAM; parameters: species or system Brown Leghorn chicken embryos; conditions: in vivo
Method: as §3, with “After 24 hours, the tape was removed, and the opening was further expanded until all the possible area of the CAM was exposed. The paper” for “The paper”

[5] = single dose 40 μM (0.91 mg/kg) on Day 6, 24 h post dose

COC(=O)[C@H](Cn1cncn1)NC(=O)[C@H](Cn1nnnc1C)NC(=O)[C@H](Cn1nnc2ccccc21)NC(=O)C(F)(F)F [Compound 1, methyl (S)-2-((S)-2-((S)-3-(1H-benzo[d][1,2,3]triazol-1-yl)-2-(2,2,2-trifluoroacetamido)propanamido)-3-(5-methyl-1H-tetrazol-1-yl)propanamido)-3-(1H-1,2,4-triazol-1-yl)propanoate]
embryo survival [1]: almost all embryos
indications of hazardous tumor growth or teratogenic effects ([1]; single (Day 6) dosing at 40 μM): no indications
mortality rates ([1]; single (Day 6) dosing at 40 μM): not statistically significant
embryos rescued from a 100-fold lethal dose of CoCl2 [2]: 25%
aberrant angiogenesis or vascular remodeling (vessel density/branching mapping) ([3]; 40 μM): did not induce
time for which activity comparable to FDA approved vasodilators at 10 minutes was maintained ([3]; CAM): 24 h
decrease in vessel length density (VLD) compared with DMSO control [3, 5]: 17%
increase in vessel diameter compared with DMSO control [3, 5]: 124%
decrease in vessel length density (VLD) compared with DMSO control ([3]; single dose 40 μM (0.91 mg/kg) on Day 6, 24 h post dose, listed as Compound 2): 17%
integrity of vessel cell walls (Miles assay) [4]: did not weaken
vascular permeability [4]: did not increase permeability

COC(=O)N[C@@H](Cc1ccccc1)C(=O)N[C@@H](Cc1ccc(NS(=O)(=O)O)cc1)c1csc(-c2cccs2)n1 [Razuprotafib]
embryo survival [1]: almost all embryos
effect on branching compared to DMSO control ([3]; 40 μM): no changes were observed
effect on vascular density (VD) compared to DMSO control ([3]; 40 μM): no changes were observed
effect on vessel diameter compared to DMSO control ([3]; 40 μM): no changes were observed
effect on vessel length density (VLD) compared to DMSO control ([3]; 40 μM): no changes were observed

CCOC(=O)C1=C(COCCN)NC(C)=C(C(=O)OC)C1c1ccccc1Cl (centres unmarked) [amlodipine]
embryos that survived [1]: Two out of three

O=[N+]([O-])O[C@@H]1CO[C@H]2[C@@H]1OC[C@@H]2O [isosorbide, isosorbide mononitrate]
embryos that survived [1]: Two out of three
effect on vascular density (VD) compared to DMSO control ([3]; 40 μM): did not observe effects
effect on vessel diameter compared to DMSO control ([3]; 40 μM): did not observe effects
effect on vessel length density (VLD) compared to DMSO control ([3]; 40 μM): did not observe effects

NLLMAAS [heptapeptide NLLMAAS, an orthosteric antagonist of ANG-1 (antiangiogenic), negative control]
effect on branching compared to DMSO control ([3]; 40 mM (1075 mg/Kg)): did not have any effects
effect on vascular density (VD) compared to DMSO control ([3]; 40 mM (1075 mg/Kg)): did not have any effects
effect on vessel diameter compared to DMSO control ([3]; 40 mM (1075 mg/Kg)): did not have any effects
effect on vessel length density (VLD) compared to DMSO control ([3]; 40 mM (1075 mg/Kg)): did not have any effects

B1: ANG-1 protein: ANG-1 protein (Gibco) (protein, UniProt Q15389 16-498, looked up)
Angiopoietin-1: HIGCSNQRRSPENSGRRYNRIQHGQCAYTFILPEHDGNCRESTTDQYNTNALQRDAPHVEPDFSSQKLQHLEHVMENYTQWLQKLENYIVENMKSEMAQIQQNAVQNHTATMLEIGTSLLSQTAEQTRKLTDVETQVLNQTSRLEIQLLENSLSTYKLEKQLLQQTNEILKIHEKNSLLEHKILEMEGKHKEELDTLKEEKENLQGLVTRQTYIIQELEKQLNRATTNNSVLQKQQLELMDTVHNLVNLCTKEGVLLKGGKREEEKPFRDCADVYQAGFNKSGIYTIYINNMPEPKKVFCNMDVNGGGWTVIQHREDGSLDFQRGWKEYKMGFGNPSGEYWLGNEFIFAITSQRQYMLRIELMDWEGNRAYSQYDRFHIGNEKQNYRLYLKGHTGTAGKQSSLILHGADFSTKDADNDNCMCKCALMLTGGWWFDACGPSNLNGMFYTAGQNHGKLNGIKWHYFKGPSYSLRSTTMMIRPLDF
effects on CAM vasculature (vessel diameter, vessel length density) compared to DMSO controls ([3]; 0.75 mg/Kg (proteins 18.87 μM, antibody 1 mg/mL)): did not produce any effects significantly different
